Data reported in patent US20230277669A1, “USES OF UROLITHINS” (Amazentis SA, priority 2022, published 2023).

Assays:
human CD8^+ T cells = assay: Human CD3+ T cells from PBMC stimulated with aCD3/aCD28 beads in presence of UA; type: cell-based; parameters: frequency of human TSCM cells (CD45RA+CCR7hiCD62L+CD95+CD8+): dose or concentration left out as unconfirmed
Method: (FIG. 5L) UA induces PGC-1α expression in stimulated CD8+ cells. PGC-1α MFI at 48 h upon stimulation, as assessed by intracellular staining, is shown (n=3). One of two independent experiments are shown. Data are mean ± SD, statistical analysis was performed by two-sided t-test (p**<0.01). (FIG. 5M) Mitochondrial content of TIL CD8+ cells harvested from APTK-carrying mice, fed UA or control diet as depicted in FIG. 1J. Assessed by Mitotracker Red staining. Data are mean ± SD, *p < 0.05 by two-sided t-test. (FIG. 5N) Mitophagy and subsequent PGAM5 release drive PGC-1α upregulation. PGC-1α expression of CD8+ cells derived from Pink1^-/- KO mice upon 48 h stimulation in vitro in the presence of UA or DMSO control (n=4). Data are mean ± SD, statistical analysis was performed by two-sided t-test. Depicts one of two independent experiments. (FIG. 5O) Mitophagy and subsequent PGAM5 release drive PGC-1 α upregulation. PGC-1α expression of CD8+ cells derived from PGAM5^-^/- mice upon 48 h stimulation in vitro in the presence of UA or DMSO control (n=4). Data are mean ± SD, statistical analysis was performed by two-sided t-test. […] Cells were co-treated with DMSO, UA and an inhibitor of PGC-1α (PGC-1αi) as indicated (n=4). One of two independent experiments are shown. Data are mean ± SD, statistical analysis was performed by two-sided t-test (p**<0.01; ***p <0.001; n.s. not significant).(FIG. 5Q) Urolithin A induces TSCM in human CD8+ cells: Schematic overview. PBMC were isolated from healthy donors, prior to T cell purification and in vitro stimulation via aCD3/aCD28 stimulation beads at the presence of UA or DMSO control. (FIG. 5R) Quantification of human TSCM (n=4). Representative data of one out of five donors with the same result are shown. (FIG. 5S) Quantification of TMRM^loCD8+ human cells 48 h after activation in the presence of UA or DMSO control (n=4). (FIG. 5T) TCF1 expression in human CD8 cells as assessed by flow cytometry (n=4). All data are mean ± SD; statistical analysis was performed by two-sided t-test (*p < 0.05; p**<0.01; p****0.0001).
(FIG. 6A) Human PBMC were isolated from healthy donors, T cells were purified and stimulated ex-vivo with αCD3/αCD28 in the presence of UA ([…]) or DMSO control.
(FIG. 6B) Frequency of human TSCM 48 h after stimulation as shown in (A). Data are mean ± SD, n=4, ****p<0.0001 by one-way ANOVA followed by Tukey’s multiple comparison test.
(FIG. 6C) Quantification of human TMRM^loCD8^+ T cells 48 h after stimulation in the presence of UA or DMSO control .Data are mean ± SD, n=4,**p<0.01 by two-sided t test.
(FIG. 6D) TCF1 expression in human CD8+ T cells 48 h after stimulation in the presence of UA or DMSO control. Data are mean ± SD, n=4,*p<0.05by two-sided t test. […]

T cells = assay: RNA sequencing of T cells exposed to DMSO or UA; type: cell-based; conditions: 48 hours
Method: (FIG. 5B) RNAseq expression heatmap of selected genes: Genes associated with immune checkpoints, effector molecules and genes encoding for leukocyte migration. (FIG. 5C) Expression of genes associated with T cell memory vs effector fate decisions. Data underwent z-score normalization for display (n=3 per group). […] T cells were stimulated for 48 h in vitro at the presence of the indicated treatments. Data are mean ± SD (n=4/4/3), statistical analysis was performed by two-sided t-test (p***<0.01; p****0.0001). (FIG. 5E) Quantification of TSCM formation within CD8+ cells after 48 h of in vitro stimulation under various treatment conditions, including TCF1 inhibition by ICG001 (DMSO, UA, TCF1i n=4; TCFi+UA n=3). Data are mean ± SD, statistical analysis was performed by two-sided t-test (*p < 0.05; n.s. not significant). One of two independent experiments are shown. (FIG. 5F) Western blot analysis of β-Catenin phosphorylation status in CD3+ cells stimulated via plate-bound aCD3/aCD28 antibodies for 6h. N=3 per group. (FIG. 5G) Cytosolic fractionation of CD3+ cells stimulated for six hours in the presence of Urolithin or DMSO control (c= cytosolic, m = mitochondrial fraction). Experiment was repeated twice.
(FIG. 8A) Ingenuity pathway upstream regulator analysis of UA treated T cells. Assessed from RNAseq data. Plausible upregulation is depicted by z score, significance is shown on the overlying dot spot. Genes with a log2 fold change of 1 and p<0.05 were initially considered.
To explore the downstream events linking mitophagy to TSCM formation, we performed RNA sequencing to globally assess differential gene expression in T cells exposed for 48 hours to either DMSO or UA in vitro. […] Indeed, when we applied ICG001 to pharmacologically block TCF-1, UA-induced TSCM formation in vitro was abrogated (FIGS. 5D-E).

C.elegans = conditions: in vivo; cited from earlier work

O=c1oc2cc(O)ccc2c2ccc(O)cc12 [Urolithin A]
CD95hiCD62L+ cells within the CD45RA+CCR7hiCD8+ compartment (human CD8^+ T cells): dose-dependent increase | TCF1 expression (intracellular staining) (human CD8^+ T cells; 48 h): increased TCF1 expression | frequency of human TSCM cells (CD45RA+CCR7hiCD62L+CD95+CD8+) (human CD8^+ T cells; 48 h, five out of five individual donors): increased the frequency | mitochondrial membrane potential (human CD8^+ T cells; after 48 hours): decreased mitochondrial membrane potential | effector fate associated genes Prdm1 and Id2 (T cells): reduced expression | expression of Cd27, Ccr7 and adhesion genes (T cells): enhancing expression | expression of genes coding for immune checkpoints and effector molecules (T cells): reduced the expression | genes involved in memory formation (Tcf7, Bach2, Bcl6) (T cells): special enrichment | lifespan (C.elegans): prolonged lifespan | mitochondrial content (C.elegans): higher mitochondrial content
